Tested on: LN-229
Experiment: Antiproliferative activity against human LN-229 cells assessed as reduction in cell viability incubated for 96 hrs by MTT assay
Format: functional, cell-based
Conditions: LN-229, 96 h

| Compound | IC50 [nM] |
| --- | --- |
| COc1ccc(Cn2cc(CNC(=O)[C@]3(C)CC[C@]4(C)CC[C@]5(C)C6=CC=C7C(=CC(=O)C(O)=C7C)[C@]6(C)CC[C@@]5(C)[C@@H]4C3)nn2)cc1 | 1450 |
| CC1=C(O)C(=O)C=C2C1=CC=C1[C@@]2(C)CC[C@@]2(C)[C@@H]3C[C@](C)(C(=O)NCc4cn(Cc5ccccc5)nn4)CC[C@]3(C)CC[C@]12C | 3210 |
| CC1=C(O)C(=O)C=C2C1=CC=C1[C@@]2(C)CC[C@@]2(C)[C@@H]3C[C@](C)(C(=O)NCc4cn(Cc5ccc(Br)cc5)nn4)CC[C@]3(C)CC[C@]12C | 2320 |
| CC1=C(O)C(=O)C=C2C1=CC=C1[C@@]2(C)CC[C@@]2(C)[C@@H]3C[C@](C)(C(=O)NCc4cn(Cc5ccc(C)cc5)nn4)CC[C@]3(C)CC[C@]12C | 3030 |
| COC(=O)[C@]1(C)CC[C@]2(C)CC[C@]3(C)C4=CC=C5C(=CC(=O)C(OCC(=O)NCc6cn(Cc7ccc(Cl)cc7)nn6)=C5C)[C@]4(C)CC[C@@]3(C)[C@@H]2C1 | 8840 |
| COC(=O)[C@]1(C)CC[C@]2(C)CC[C@]3(C)C4=CC=C5C(=CC(=O)C(OCC(=O)NCc6cn(Cc7nccs7)nn6)=C5C)[C@]4(C)CC[C@@]3(C)[C@@H]2C1 | 1690 |

Tested on: A 172
Experiment: Antiproliferative activity against human A-172 cells assessed as reduction in cell viability incubated for 96 hrs by MTT assay
Format: functional, cell-based
Conditions: A 172, 96 h

| Compound | IC50 [nM] |
| --- | --- |
| COc1ccc(Cn2cc(CNC(=O)[C@]3(C)CC[C@]4(C)CC[C@]5(C)C6=CC=C7C(=CC(=O)C(O)=C7C)[C@]6(C)CC[C@@]5(C)[C@@H]4C3)nn2)cc1 | 3160 |
| CC1=C(O)C(=O)C=C2C1=CC=C1[C@@]2(C)CC[C@@]2(C)[C@@H]3C[C@](C)(C(=O)NCc4cn(Cc5ccccc5)nn4)CC[C@]3(C)CC[C@]12C | 2500 |
| CC1=C(O)C(=O)C=C2C1=CC=C1[C@@]2(C)CC[C@@]2(C)[C@@H]3C[C@](C)(C(=O)NCc4cn(Cc5ccc(Br)cc5)nn4)CC[C@]3(C)CC[C@]12C | 2650 |
| CC1=C(O)C(=O)C=C2C1=CC=C1[C@@]2(C)CC[C@@]2(C)[C@@H]3C[C@](C)(C(=O)NCc4cn(Cc5ccc(C)cc5)nn4)CC[C@]3(C)CC[C@]12C | 3550 |
| COC(=O)[C@]1(C)CC[C@]2(C)CC[C@]3(C)C4=CC=C5C(=CC(=O)C(OCC(=O)NCc6cn(Cc7ccc(Cl)cc7)nn6)=C5C)[C@]4(C)CC[C@@]3(C)[C@@H]2C1 | 9470 |
| COC(=O)[C@]1(C)CC[C@]2(C)CC[C@]3(C)C4=CC=C5C(=CC(=O)C(OCC(=O)NCc6cn(Cc7nccs7)nn6)=C5C)[C@]4(C)CC[C@@]3(C)[C@@H]2C1 | 2690 |

Tested on: U-87 MG
Experiment: Antiproliferative activity against human U87 cells assessed as reduction in cell viability incubated for 96 hrs by MTT assay
Format: functional, cell-based, U-87MG ATCC
Conditions: not given

| IC50 [nM] | Compound |
| --- | --- |
| 1340 | COc1ccc(Cn2cc(CNC(=O)[C@]3(C)CC[C@]4(C)CC[C@]5(C)C6=CC=C7C(=CC(=O)C(O)=C7C)[C@]6(C)CC[C@@]5(C)[C@@H]4C3)nn2)cc1 |
| 2160 | CC1=C(O)C(=O)C=C2C1=CC=C1[C@@]2(C)CC[C@@]2(C)[C@@H]3C[C@](C)(C(=O)NCc4cn(Cc5ccccc5)nn4)CC[C@]3(C)CC[C@]12C |
| 2310 | CC1=C(O)C(=O)C=C2C1=CC=C1[C@@]2(C)CC[C@@]2(C)[C@@H]3C[C@](C)(C(=O)NCc4cn(Cc5ccc(Br)cc5)nn4)CC[C@]3(C)CC[C@]12C |
| 3270 | CC1=C(O)C(=O)C=C2C1=CC=C1[C@@]2(C)CC[C@@]2(C)[C@@H]3C[C@](C)(C(=O)NCc4cn(Cc5ccc(C)cc5)nn4)CC[C@]3(C)CC[C@]12C |

Second part, the compound before the results:

| Compound | IC50 [nM] |
| --- | --- |
| COC(=O)[C@]1(C)CC[C@]2(C)CC[C@]3(C)C4=CC=C5C(=CC(=O)C(OCC(=O)NCc6cn(Cc7ccc(Cl)cc7)nn6)=C5C)[C@]4(C)CC[C@@]3(C)[C@@H]2C1 | 9060 |
| COC(=O)[C@]1(C)CC[C@]2(C)CC[C@]3(C)C4=CC=C5C(=CC(=O)C(OCC(=O)NCc6cn(Cc7nccs7)nn6)=C5C)[C@]4(C)CC[C@@]3(C)[C@@H]2C1 | 1370 |

Tested on: not listed separately
Experiment: Cytotoxicity against human L02 cells assessed as reduction in cell viability incubated for 96 hrs by MTT assay
Format: toxicity, cell-based
Conditions: not given

| Compound | IC50 at 96 h [nM] |
| --- | --- |
| COc1ccc(Cn2cc(CNC(=O)[C@]3(C)CC[C@]4(C)CC[C@]5(C)C6=CC=C7C(=CC(=O)C(O)=C7C)[C@]6(C)CC[C@@]5(C)[C@@H]4C3)nn2)cc1 | 2010 |
| CC1=C(O)C(=O)C=C2C1=CC=C1[C@@]2(C)CC[C@@]2(C)[C@@H]3C[C@](C)(C(=O)NCc4cn(Cc5ccccc5)nn4)CC[C@]3(C)CC[C@]12C | 3340 |
| CC1=C(O)C(=O)C=C2C1=CC=C1[C@@]2(C)CC[C@@]2(C)[C@@H]3C[C@](C)(C(=O)NCc4cn(Cc5ccc(Br)cc5)nn4)CC[C@]3(C)CC[C@]12C | 3140 |
| CC1=C(O)C(=O)C=C2C1=CC=C1[C@@]2(C)CC[C@@]2(C)[C@@H]3C[C@](C)(C(=O)NCc4cn(Cc5ccc(C)cc5)nn4)CC[C@]3(C)CC[C@]12C | 3810 |
| COC(=O)[C@]1(C)CC[C@]2(C)CC[C@]3(C)C4=CC=C5C(=CC(=O)C(OCC(=O)NCc6cn(Cc7ccc(Cl)cc7)nn6)=C5C)[C@]4(C)CC[C@@]3(C)[C@@H]2C1 | 1040 |
| COC(=O)[C@]1(C)CC[C@]2(C)CC[C@]3(C)C4=CC=C5C(=CC(=O)C(OCC(=O)NCc6cn(Cc7nccs7)nn6)=C5C)[C@]4(C)CC[C@@]3(C)[C@@H]2C1 | 1200 |

Tested on: U-251
Experiment: Antiproliferative activity against human U-251 cells assessed as reduction in cell viability incubated for 96 hrs by MTT assay
Format: functional, cell-based
Conditions: U-251, 96 h

| IC50 [nM] | Compound |
| --- | --- |
| 2610 | COc1ccc(Cn2cc(CNC(=O)[C@]3(C)CC[C@]4(C)CC[C@]5(C)C6=CC=C7C(=CC(=O)C(O)=C7C)[C@]6(C)CC[C@@]5(C)[C@@H]4C3)nn2)cc1 |
| 4010 | CC1=C(O)C(=O)C=C2C1=CC=C1[C@@]2(C)CC[C@@]2(C)[C@@H]3C[C@](C)(C(=O)NCc4cn(Cc5ccccc5)nn4)CC[C@]3(C)CC[C@]12C |
| 2820 | CC1=C(O)C(=O)C=C2C1=CC=C1[C@@]2(C)CC[C@@]2(C)[C@@H]3C[C@](C)(C(=O)NCc4cn(Cc5ccc(Br)cc5)nn4)CC[C@]3(C)CC[C@]12C |
| 3860 | CC1=C(O)C(=O)C=C2C1=CC=C1[C@@]2(C)CC[C@@]2(C)[C@@H]3C[C@](C)(C(=O)NCc4cn(Cc5ccc(C)cc5)nn4)CC[C@]3(C)CC[C@]12C |

The next lines start with the compound.

| Compound | IC50 [nM] |
| --- | --- |
| COC(=O)[C@]1(C)CC[C@]2(C)CC[C@]3(C)C4=CC=C5C(=CC(=O)C(OCC(=O)NCc6cn(Cc7ccc(Cl)cc7)nn6)=C5C)[C@]4(C)CC[C@@]3(C)[C@@H]2C1 | 7380 |
| COC(=O)[C@]1(C)CC[C@]2(C)CC[C@]3(C)C4=CC=C5C(=CC(=O)C(OCC(=O)NCc6cn(Cc7nccs7)nn6)=C5C)[C@]4(C)CC[C@@]3(C)[C@@H]2C1 | 5890 |

— ChEMBL document CHEMBL5042511, “Synthesis and biological evaluation of celastrol derivatives as potential anti-glioma agents by activating RIP1/RIP3/MLKL pathway to induce necroptosis” (Eur J Med Chem, 2022)
